Laboratory results published in ChEMBL document CHEMBL3425437, “Selective Inhibitors of Cyclin G Associated Kinase (GAK) as Anti-Hepatitis C Agents” (J Med Chem, 2015).
Values belong to the molecule of their own block, whether it stands above or below them.

Legend:
[1] = molecular target: T1, Cyclin-G-associated kinase (Homo sapiens, UniProt O14976); test: Binding affinity to human GAK fused to T7 bacteriophage expressed in Escherichia coli BL21 after 1 hr by qPCR analysis
T1 sequence (O14976 whole entry): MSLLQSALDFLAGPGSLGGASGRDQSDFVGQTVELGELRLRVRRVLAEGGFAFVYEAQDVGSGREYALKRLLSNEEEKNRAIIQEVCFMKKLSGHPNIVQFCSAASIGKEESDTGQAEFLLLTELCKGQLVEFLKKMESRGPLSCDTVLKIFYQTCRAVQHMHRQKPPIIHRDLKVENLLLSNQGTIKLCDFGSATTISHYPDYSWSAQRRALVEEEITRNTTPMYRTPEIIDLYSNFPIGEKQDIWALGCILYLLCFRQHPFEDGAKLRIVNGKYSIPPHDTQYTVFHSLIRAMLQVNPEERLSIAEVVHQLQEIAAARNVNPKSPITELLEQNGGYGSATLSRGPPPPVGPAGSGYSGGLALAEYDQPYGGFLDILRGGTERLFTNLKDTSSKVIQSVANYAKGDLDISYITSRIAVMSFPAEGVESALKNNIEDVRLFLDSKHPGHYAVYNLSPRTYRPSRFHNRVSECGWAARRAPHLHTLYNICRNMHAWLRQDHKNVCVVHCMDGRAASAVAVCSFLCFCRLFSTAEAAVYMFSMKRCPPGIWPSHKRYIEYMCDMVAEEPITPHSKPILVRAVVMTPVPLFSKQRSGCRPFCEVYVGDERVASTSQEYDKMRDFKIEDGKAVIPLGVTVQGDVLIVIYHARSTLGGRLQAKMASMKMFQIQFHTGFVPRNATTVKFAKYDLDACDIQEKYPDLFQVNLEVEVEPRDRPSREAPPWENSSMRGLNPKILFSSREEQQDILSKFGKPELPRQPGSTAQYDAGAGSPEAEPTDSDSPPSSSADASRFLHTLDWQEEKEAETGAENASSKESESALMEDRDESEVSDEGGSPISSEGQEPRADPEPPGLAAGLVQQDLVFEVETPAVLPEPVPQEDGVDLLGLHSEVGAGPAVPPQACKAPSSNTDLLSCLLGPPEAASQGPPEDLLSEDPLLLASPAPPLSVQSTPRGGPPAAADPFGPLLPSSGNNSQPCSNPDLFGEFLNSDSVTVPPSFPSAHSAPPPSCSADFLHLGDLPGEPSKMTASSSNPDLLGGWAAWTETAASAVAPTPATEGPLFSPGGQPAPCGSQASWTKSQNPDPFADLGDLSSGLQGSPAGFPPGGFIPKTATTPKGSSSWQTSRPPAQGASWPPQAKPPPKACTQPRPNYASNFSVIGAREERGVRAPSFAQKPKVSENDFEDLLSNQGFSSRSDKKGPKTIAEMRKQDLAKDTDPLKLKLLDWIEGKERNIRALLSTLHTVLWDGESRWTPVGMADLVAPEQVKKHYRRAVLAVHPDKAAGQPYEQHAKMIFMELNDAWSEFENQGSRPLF

[2] = Cytotoxicity against human Huh7.5 cells infected with Hepatitis C virus H77 pseudoparticle assessed as effect on cell viability after 4 hrs by Alamarblue assay; format: cell-based; conditions: huh-7, 4 h
Hepatitis C virus [3] = test: Antiviral activity against Hepatitis C virus J6/JFH infected in human Huh7.5 cells assessed as inhibition of viral replication measured after 72 hrs by luciferase reporter gene assay; format: functional, organism-based, Hepacivirus hominis; conditions: Huh-7, 72 h
Hepatitis C virus [4] = test: Antiviral activity against Hepatitis C virus J6/JFH electroporated in human Huh7.5 cells assessed as inhibition of intracellular infectivity drug treated every 24 hrs for 72 hrs measured 72 hrs post electroporation by luciferase reporter gene assay; format: functional, organism-based, Hepacivirus hominis; conditions: Huh-7
Hepatitis C virus [5] = test: Antiviral activity against Hepatitis C virus J6/JFH infected in human Huh7.5 cells assessed as inhibition of extracellular infectivity drug treated every 24 hrs for 72 hrs measured after 72 hrs by luciferase reporter gene assay; format: functional, organism-based, Hepacivirus hominis; conditions: Huh-7
[6] = Cytotoxicity against human Huh7.5 cells infected with Hepatitis C virus J6/JFH assessed as effect on cell viability after 72 hrs by Alamarblue assay; format: cell-based; conditions: huh-7, 72 h
Hepatitis C virus [7] = test: Antiviral activity against Hepatitis C virus H77 pseudoparticle assessed as inhibition of viral entry into human Huh7.5 cells after 4 hrs by luciferase reporter gene assay; format: functional, cell-based, Hepacivirus hominis; conditions: genotype 1a H77, Huh-7, 4 h
[8] = molecular target: Dual specificity protein kinase CLK2 (Homo sapiens, UniProt P49760); test: Binding affinity to human CLK2
[9] = molecular target: Macrophage colony-stimulating factor 1 receptor (Homo sapiens, UniProt P07333); test: Binding affinity to human CSF1R
[10] = molecular target: T2, Receptor-type tyrosine-protein kinase FLT3 (Homo sapiens, UniProt P36888); test: Binding affinity to human FLT3
T2 sequence (P36888 whole entry): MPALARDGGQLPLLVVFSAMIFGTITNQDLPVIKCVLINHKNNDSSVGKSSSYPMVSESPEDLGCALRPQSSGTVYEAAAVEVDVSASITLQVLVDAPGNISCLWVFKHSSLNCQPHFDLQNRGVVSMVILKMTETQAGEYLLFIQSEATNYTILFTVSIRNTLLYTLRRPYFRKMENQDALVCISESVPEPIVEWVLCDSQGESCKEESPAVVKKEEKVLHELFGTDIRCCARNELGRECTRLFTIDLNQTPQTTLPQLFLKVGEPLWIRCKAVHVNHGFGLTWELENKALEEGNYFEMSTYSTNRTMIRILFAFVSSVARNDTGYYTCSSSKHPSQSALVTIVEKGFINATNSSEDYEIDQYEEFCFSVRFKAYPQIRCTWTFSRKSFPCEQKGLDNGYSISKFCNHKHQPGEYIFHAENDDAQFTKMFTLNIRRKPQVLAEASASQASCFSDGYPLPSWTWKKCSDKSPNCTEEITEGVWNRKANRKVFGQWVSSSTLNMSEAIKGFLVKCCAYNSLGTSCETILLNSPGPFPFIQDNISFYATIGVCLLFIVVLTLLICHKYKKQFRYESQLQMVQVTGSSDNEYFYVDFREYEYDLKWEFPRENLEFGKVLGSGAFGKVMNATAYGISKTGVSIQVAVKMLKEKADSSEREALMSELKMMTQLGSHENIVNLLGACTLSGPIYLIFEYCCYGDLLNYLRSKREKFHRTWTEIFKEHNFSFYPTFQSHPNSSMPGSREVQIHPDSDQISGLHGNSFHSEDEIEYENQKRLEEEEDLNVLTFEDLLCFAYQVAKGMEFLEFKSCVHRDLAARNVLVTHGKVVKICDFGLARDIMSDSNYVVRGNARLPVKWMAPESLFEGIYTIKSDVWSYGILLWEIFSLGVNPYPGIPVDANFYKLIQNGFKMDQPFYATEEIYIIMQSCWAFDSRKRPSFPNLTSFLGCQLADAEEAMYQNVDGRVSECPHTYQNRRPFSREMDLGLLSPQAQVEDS

[11] = molecular target: Mast/stem cell growth factor receptor Kit (Homo sapiens, UniProt P10721); test: Binding affinity to human KIT
[12] = molecular target: T3, Dual specificity mitogen-activated protein kinase kinase 5 (Homo sapiens, UniProt Q13163); test: Binding affinity to human MEK5
T3 sequence (Q13163 whole entry): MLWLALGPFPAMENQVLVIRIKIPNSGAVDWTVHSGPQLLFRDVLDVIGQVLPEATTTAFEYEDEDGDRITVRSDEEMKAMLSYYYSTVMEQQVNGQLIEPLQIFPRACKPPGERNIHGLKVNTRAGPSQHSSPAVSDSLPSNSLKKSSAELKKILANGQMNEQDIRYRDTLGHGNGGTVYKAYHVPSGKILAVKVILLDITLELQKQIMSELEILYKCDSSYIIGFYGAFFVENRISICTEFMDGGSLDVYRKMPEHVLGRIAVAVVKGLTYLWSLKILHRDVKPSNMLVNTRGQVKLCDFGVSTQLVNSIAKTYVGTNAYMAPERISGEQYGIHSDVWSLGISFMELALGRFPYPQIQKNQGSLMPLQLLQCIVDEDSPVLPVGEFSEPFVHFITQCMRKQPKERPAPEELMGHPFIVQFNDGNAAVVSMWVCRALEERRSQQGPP

[13] = molecular target: Platelet-derived growth factor receptor alpha (Homo sapiens, UniProt P16234); test: Binding affinity to human PDGFRalpha
[14] = molecular target: Platelet-derived growth factor receptor beta (Homo sapiens, UniProt P09619); test: Binding affinity to human PDGFRbeta
Chain of Platelet-derived growth factor receptor beta (P09619 whole entry): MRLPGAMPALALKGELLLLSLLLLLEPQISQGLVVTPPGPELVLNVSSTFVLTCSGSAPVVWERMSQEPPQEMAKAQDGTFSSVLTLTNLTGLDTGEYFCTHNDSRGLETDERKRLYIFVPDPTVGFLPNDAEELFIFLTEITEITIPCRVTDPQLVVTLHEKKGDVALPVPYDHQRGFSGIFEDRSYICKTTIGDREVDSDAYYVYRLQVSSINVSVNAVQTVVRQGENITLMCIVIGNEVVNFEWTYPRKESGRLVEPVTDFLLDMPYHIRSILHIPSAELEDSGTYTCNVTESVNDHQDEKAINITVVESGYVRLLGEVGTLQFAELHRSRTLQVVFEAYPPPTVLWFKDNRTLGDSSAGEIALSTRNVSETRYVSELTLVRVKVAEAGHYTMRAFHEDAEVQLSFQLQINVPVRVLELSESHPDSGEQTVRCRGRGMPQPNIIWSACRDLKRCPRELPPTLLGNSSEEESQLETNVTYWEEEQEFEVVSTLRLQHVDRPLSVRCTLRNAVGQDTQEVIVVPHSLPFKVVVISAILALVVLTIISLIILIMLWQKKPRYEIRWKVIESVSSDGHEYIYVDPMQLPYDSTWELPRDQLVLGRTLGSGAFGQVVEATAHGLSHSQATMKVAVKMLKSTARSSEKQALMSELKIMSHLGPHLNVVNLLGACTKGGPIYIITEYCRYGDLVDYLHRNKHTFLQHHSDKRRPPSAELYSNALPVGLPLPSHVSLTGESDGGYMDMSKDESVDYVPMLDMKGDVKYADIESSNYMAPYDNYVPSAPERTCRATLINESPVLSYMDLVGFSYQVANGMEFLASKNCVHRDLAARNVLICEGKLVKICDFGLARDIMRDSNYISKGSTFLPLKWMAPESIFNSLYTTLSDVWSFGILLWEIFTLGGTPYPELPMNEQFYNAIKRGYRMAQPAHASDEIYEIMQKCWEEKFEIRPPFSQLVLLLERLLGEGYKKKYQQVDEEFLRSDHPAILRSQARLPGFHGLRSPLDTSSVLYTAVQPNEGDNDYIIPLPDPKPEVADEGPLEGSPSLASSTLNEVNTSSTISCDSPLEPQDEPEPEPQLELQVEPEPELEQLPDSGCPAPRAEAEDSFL

Chain of Platelet-derived growth factor receptor alpha (P16234 whole entry): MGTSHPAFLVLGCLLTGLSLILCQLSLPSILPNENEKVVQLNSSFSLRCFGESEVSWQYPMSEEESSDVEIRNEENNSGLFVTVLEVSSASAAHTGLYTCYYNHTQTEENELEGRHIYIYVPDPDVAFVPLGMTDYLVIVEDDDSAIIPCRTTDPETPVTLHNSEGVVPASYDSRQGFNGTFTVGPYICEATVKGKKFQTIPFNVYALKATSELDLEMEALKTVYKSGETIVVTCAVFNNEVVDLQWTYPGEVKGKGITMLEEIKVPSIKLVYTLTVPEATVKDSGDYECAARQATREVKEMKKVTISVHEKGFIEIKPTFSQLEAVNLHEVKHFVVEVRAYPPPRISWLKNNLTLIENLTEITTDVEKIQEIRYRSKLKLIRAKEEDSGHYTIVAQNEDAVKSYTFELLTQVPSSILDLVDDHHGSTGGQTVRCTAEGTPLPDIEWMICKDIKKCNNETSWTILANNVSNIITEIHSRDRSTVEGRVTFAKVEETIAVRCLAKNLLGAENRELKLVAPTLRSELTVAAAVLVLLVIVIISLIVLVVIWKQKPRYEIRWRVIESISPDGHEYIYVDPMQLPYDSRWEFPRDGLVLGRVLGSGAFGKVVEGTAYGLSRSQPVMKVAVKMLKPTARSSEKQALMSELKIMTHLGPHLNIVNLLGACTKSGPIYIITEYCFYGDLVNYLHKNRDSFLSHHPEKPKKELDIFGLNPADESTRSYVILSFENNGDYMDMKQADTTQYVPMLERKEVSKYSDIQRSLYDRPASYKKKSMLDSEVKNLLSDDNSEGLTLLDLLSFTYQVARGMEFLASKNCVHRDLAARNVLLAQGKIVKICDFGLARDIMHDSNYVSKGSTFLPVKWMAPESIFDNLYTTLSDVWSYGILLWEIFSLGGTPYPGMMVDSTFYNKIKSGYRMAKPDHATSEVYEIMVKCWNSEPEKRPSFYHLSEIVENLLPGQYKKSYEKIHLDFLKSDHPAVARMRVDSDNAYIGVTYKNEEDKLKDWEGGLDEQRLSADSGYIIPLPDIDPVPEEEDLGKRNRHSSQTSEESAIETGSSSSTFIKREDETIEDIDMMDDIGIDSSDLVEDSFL
Chain of Dual specificity protein kinase CLK2 (P49760 whole entry): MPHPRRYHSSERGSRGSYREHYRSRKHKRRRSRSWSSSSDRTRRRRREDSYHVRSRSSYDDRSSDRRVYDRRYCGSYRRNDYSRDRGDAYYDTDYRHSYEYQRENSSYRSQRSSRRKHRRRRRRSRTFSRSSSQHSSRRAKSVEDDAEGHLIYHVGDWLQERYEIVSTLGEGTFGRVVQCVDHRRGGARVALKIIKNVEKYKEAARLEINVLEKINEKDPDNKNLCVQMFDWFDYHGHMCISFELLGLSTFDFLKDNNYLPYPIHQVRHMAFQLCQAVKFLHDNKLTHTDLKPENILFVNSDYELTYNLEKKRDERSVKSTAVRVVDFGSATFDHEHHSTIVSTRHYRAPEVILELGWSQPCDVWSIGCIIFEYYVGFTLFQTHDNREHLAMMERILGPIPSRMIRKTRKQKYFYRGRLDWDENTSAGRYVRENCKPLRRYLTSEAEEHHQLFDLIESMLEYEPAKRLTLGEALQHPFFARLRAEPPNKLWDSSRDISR
Chain of Mast/stem cell growth factor receptor Kit (P10721 whole entry): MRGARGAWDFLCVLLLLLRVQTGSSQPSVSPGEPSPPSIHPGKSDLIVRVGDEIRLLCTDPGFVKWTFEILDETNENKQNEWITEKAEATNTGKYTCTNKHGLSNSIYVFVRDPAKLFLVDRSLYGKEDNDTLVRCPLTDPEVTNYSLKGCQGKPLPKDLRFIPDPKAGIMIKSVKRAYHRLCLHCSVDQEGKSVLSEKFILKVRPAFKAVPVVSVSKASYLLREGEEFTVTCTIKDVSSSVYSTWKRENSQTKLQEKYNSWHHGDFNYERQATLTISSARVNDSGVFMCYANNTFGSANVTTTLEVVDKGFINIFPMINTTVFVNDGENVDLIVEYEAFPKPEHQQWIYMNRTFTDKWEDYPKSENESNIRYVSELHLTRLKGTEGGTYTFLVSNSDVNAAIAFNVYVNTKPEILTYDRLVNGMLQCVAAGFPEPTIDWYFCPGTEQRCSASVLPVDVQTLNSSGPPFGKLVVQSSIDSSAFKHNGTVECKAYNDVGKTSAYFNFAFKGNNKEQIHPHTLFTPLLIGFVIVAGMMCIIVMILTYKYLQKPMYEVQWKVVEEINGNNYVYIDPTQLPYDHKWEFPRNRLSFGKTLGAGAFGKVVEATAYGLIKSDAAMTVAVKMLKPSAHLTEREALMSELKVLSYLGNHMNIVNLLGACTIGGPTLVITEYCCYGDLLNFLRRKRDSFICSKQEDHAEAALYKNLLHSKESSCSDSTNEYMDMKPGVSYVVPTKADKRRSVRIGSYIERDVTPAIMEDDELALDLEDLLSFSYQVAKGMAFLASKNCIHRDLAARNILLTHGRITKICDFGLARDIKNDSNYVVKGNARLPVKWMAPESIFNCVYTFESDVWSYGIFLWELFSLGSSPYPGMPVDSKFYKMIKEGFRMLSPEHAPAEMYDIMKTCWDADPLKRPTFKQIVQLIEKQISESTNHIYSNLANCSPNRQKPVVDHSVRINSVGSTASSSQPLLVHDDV
Chain of Macrophage colony-stimulating factor 1 receptor (P07333 whole entry): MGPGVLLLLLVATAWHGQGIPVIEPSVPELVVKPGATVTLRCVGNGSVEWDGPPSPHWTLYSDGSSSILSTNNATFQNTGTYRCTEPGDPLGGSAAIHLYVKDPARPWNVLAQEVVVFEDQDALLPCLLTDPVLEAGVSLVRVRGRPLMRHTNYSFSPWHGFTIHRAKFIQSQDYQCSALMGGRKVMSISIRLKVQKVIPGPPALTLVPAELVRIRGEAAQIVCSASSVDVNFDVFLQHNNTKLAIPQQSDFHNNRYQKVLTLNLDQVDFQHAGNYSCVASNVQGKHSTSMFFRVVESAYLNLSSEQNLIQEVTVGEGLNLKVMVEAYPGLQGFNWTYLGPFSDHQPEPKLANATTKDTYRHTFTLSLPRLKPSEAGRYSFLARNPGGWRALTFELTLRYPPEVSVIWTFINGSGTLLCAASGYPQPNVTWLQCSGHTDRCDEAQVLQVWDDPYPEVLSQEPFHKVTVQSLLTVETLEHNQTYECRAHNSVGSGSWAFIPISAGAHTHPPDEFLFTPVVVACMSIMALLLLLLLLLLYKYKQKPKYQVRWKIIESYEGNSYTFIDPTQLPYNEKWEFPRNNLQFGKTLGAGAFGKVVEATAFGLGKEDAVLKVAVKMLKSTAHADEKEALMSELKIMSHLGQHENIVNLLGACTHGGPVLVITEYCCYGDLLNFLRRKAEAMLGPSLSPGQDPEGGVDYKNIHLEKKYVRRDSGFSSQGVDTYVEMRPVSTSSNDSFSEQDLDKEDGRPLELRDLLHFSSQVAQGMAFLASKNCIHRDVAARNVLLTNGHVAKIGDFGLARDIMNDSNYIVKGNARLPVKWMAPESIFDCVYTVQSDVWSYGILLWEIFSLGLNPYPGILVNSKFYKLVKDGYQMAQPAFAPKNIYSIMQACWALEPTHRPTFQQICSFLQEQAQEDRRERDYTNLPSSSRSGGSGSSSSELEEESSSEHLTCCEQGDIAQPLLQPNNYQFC

Structure (SMILES): c1cc(-c2cnc3c(N4CCOCC4)snc3c2)co1
Kd [1]: 200 nM

Structure (SMILES): COc1cc(-c2cnc3c(N4CCOCC4)snc3c2)ccc1OC(C)=O
Kd [1]: 18 nM

Structure (SMILES): COc1cc(-c2cnc3c(N4CCOCC4)snc3c2)ccc1N
Activity [2]: Non-toxic

Structure (SMILES): C#Cc1cccc(Nc2ncnc3cc(OCCOC)c(OCCOC)cc23)c1 [ERLOTINIB]
EC50 (Hepatitis C virus [3]): 500 nM
EC50 (Hepatitis C virus [4]): 500 nM
EC50 (Hepatitis C virus [5]): 500 nM

Structure (SMILES): COc1cc(-c2cnc3c(N4CCOCC4)snc3c2)cc(OC)c1OC
EC50 (Hepatitis C virus [3]): 2550 nM
CC50 [6]: 23300 nM
EC50 (Hepatitis C virus [7]): 3600 nM
Activity [2]: Non-toxic
EC50 (Hepatitis C virus [4]): 1640 nM
EC50 (Hepatitis C virus [5]): 2130 nM
Kd [8]: 710 nM
Kd [9]: 320 nM
Kd [10]: 110 nM
Kd [11]: 29 nM
Kd [12]: 150 nM
Kd [13]: 220 nM
Kd [14]: 70 nM

Structure (SMILES): c1cc(-c2cnc3c(N4CCOCC4)snc3c2)cs1
Kd [1]: 42 nM

Structure (SMILES): COc1ccc(-c2cnc3c(N4CCOCC4)snc3c2)cc1OC
Kd [1]: 52 nM

Other lines, results leading:

Kd [1]: 72 nM
Structure (SMILES): COc1cc(OC)cc(-c2cnc3c(N4CCOCC4)snc3c2)c1

Kd [1]: 130 nM
Structure (SMILES): COc1ccc(OC)c(-c2cnc3c(N4CCOCC4)snc3c2)c1

Kd [1]: 18 nM
Structure (SMILES): COc1cc(-c2cnc3c(N4CCOCC4)snc3c2)ccc1O
